Drawing on article PMC9044549 (RSC Advances, 2021), this text covers IC50 for 15 compounds.

Assay [1] concerns HCT-116, HepG-2 and MCF-7 cells. Type of assay: cell-based. The note with it: Homo sapiens, read-out: IC50 values against the three cell lines (range).
Assay [2] has as its system MCF-7 breast cancer cells. Nature of the assay: In vitro anti-proliferative activity, MTT assay. Type of assay: cell-based. The following applies: Homo sapiens, MCF7, read-out: In vitro anti-proliferative activities MCF-7 IC50.

`COc1cc(-c2ccc(-c3nnc(SC)o3)c(C)n2)cc(OC)c1OC` [VIIIa, 2-[2-Methyl-6-(3,4,5-trimethoxyphenyl)pyridin-3-yl]-5-(methylthio)-1,3,4-oxadiazole]: the IC50 (in general, the concentration that inhibits the measured activity by half) in assay [1] was 10.8 to 31.5 µM; in assay [2], 18.2 ± 0.55 µM. As to `CCSc1nnc(-c2ccc(-c3cc(OC)c(OC)c(OC)c3)nc2C)o1` [VIIIb, 2-(Ethylthio)-5-[2-methyl-6-(3,4,5-trimethoxyphenyl)pyridin-3-yl]-1,3,4-oxadiazole], the IC50 in assay [2] worked out at 14.8 ± 0.37 µM. As to `COc1cc(-c2ccc(-c3nnc(SCCCBr)o3)c(C)n2)cc(OC)c1OC` [VIIIc, 2-[(3-Bromopropyl)thio]-5-[2-methyl-6-(3,4,5-trimethoxyphenyl)pyridin-3-yl]-1,3,4-oxadiazole], the half-maximal inhibitory concentration (IC50) in assay [1] is 10.8 to 31.5 µM; in assay [2] it was 25.2 ± 0.64 µM. For `CCCCCCSc1nnc(-c2ccc(-c3cc(OC)c(OC)c(OC)c3)nc2C)o1` [VIIId, 2-(Hexylthio)-5-[2-methyl-6-(3,4,5-trimethoxyphenyl)pyridin-3-yl]-1,3,4-oxadiazole] the same measures were 10.8 to 31.5 µM and 27.2 ± 0.68 µM. As for `COc1cc(-c2ccc(-c3nnc(SCC4CCCCC4)o3)c(C)n2)cc(OC)c1OC` [VIIIe, 2-[(Cyclohexylmethyl)thio]-5-[2-methyl-6-(3,4,5-trimethoxyphenyl)pyridin-3-yl]-1,3,4-oxadiazole], the IC50 in assay [1] is 10.8 to 31.5 µM; in assay [2], 21.4 ± 0.45 µM. The matching figures for `COc1cc(-c2ccc(C(=O)N/N=C/c3ccc(O)cc3)c(C)n2)cc(OC)c1OC` [Va, (E)-N′-(4-Hydroxybenzylidene)-2-methyl-6-(3,4,5-trimethoxyphenyl)nicotinohydrazide]: 10.8 to 31.5 µM and 21.5 ± 0.67 µM.

Take `COc1ccccc1/C=N/NC(=O)c1ccc(-c2cc(OC)c(OC)c(OC)c2)nc1C` [Vb, (E)-N′-(2-Methoxybenzylidene)-2-methyl-6-(3,4,5-trimethoxyphenyl)nicotinohydrazide]: the IC50 in assay [1] is 3.25 to 9.15 µM; in assay [2] it was 8.5 ± 0.24 µM. Consider `COc1ccc(/C=N/NC(=O)c2ccc(-c3cc(OC)c(OC)c(OC)c3)nc2C)cc1OC` [Vc, (E)-N′-(3,4-Dimethoxybenzylidene)-2-methyl-6-(3,4,5-trimethoxyphenyl)nicotinohydrazide], for which the values for the IC50 in assay [1] and in assay [2] were 3.25 to 9.15 µM and 9.15 ± 0.31 µM, respectively.

Regarding `COc1cc(OC)c(/C=N/NC(=O)c2ccc(-c3cc(OC)c(OC)c(OC)c3)nc2C)c(OC)c1` [Vd, (E)-2-Methyl-N′-(2,4,6-trimethoxybenzylidene)-6-(3,4,5-trimethoxyphenyl)nicotinohydrazide], the IC50 in assay [1] is 10.8 to 31.5 µM; in assay [2], 15.8 ± 0.46 µM. Consider `CCOc1ccc(/C=N/NC(=O)c2ccc(-c3cc(OC)c(OC)c(OC)c3)nc2C)cc1` [Ve, (E)-N′-(4-Ethoxybenzylidene)-2-methyl-6-(3,4,5-trimethoxyphenyl)nicotinohydrazide], for which the IC50 in assay [2] was 46.6 ± 0.95 µM. As to `COc1cc(-c2ccc(C(=O)N/N=C/c3cc(C)ccc3C)c(C)n2)cc(OC)c1OC` [Vf, (E)-N′-(2,5-Dimethylbenzylidene)-2-methyl-6-(3,4,5-trimethoxyphenyl)nicotinohydrazide], the values for the IC50 in assay [1] and in assay [2] were 3.25 to 9.15 µM and 6.32 ± 0.14 µM, respectively.

As for `COc1cc(-c2ccc(C(=O)N/N=C/c3ccc(Cl)cc3)c(C)n2)cc(OC)c1OC` [Vg, (E)-N′-(4-Chlorobenzylidene)-2-methyl-6-(3,4,5-trimethoxyphenyl)nicotinohydrazide], the results for the IC50 in assay [1] and in assay [2] were 10.8 to 31.5 µM and 31.5 ± 0.7 µM, respectively. The matching figures for `COc1cc(-c2ccc(C(=O)N/N=C/c3cc(Cl)ccc3Cl)c(C)n2)cc(OC)c1OC` [Vh, (E)-N′-(2,5-Dichlorobenzylidene)-2-methyl-6-(3,4,5-trimethoxyphenyl)nicotinohydrazide]: 10.8 to 31.5 µM and 30.1 ± 0.75 µM. For `COc1cc(-c2ccc(C(=O)N/N=C/c3ccc([N+](=O)[O-])cc3)c(C)n2)cc(OC)c1OC` [Vj, (E)-2-Methyl-N′-(4-nitrobenzylidene)-6-(3,4,5-trimethoxyphenyl)nicotinohydrazide] the same measures were 3.25 to 9.15 µM and 4.82 ± 0.05 µM.

Turning to `COc1cc(-c2ccc(C(=O)N/N=C/c3ccncc3)c(C)n2)cc(OC)c1OC` [Vk, (E)-2-Methyl-N′-(pyridin-4-ylmethylene)-6-(3,4,5-trimethoxyphenyl)nicotinohydrazide], the IC50 is 10.8 to 31.5 µM in assay [1] and 17.5 ± 0.57 µM in assay [2].
